PMC7824787, “Design, Synthesis and In Vitro Investigation of Novel Basic Celastrol Carboxamides as Bio-Inspired Leishmanicidal Agents Endowed with Inhibitory Activity against Leishmania Hsp90” (Biomolecules, 2021)

How the values were obtained:
[1] = tested on: L. infantum promastigotes; assay: Antileishmanial activity on L. infantum promastigotes (MTT); assay type: cell-based; conditions: Leishmania infantum, 72 h, 23 °C, MTT, read-out: Leishmania Promastigotes IC50, L. infantum
Method: (§1) Promastigote stage of L. infantum (MHOM/TN/80/IPT1, kindly provided by Dr. M. Gramiccia and Dr. T. Di Muccio, ISS, Roma) and L. tropica (MHOM/SY/2012/ISS3130) were cultured in RPMI 1640 medium (EuroClone) supplemented with 15% heat-inactivated fetal calf serum (EuroClone, Milan, Italy), 20 mM HEPES, and 2 mM L-glutamine at 23 °C. The MTT (3-[4.5-dimethylthiazol-2-yl]-2.5-diphenyltetrazolium bromide) method was used to estimate the 50% inhibitory concentration (IC50), with some modifications. Compounds were dissolved in DMSO and then diluted with medium to achieve the required concentrations. Test compounds were placed in 96 wells round bottom microplates and seven serial dilutions made. Amphotericin B was used as the reference antileishmanial drug. Parasites were diluted in complete medium to 5 × 10^6 parasites/mL and 100 μL of the suspension was seeded into the plates and incubated at 23 °C for 72 h. Then 20 μL of MTT solution (5 mg/mL) was added into each well, after 3 h the plates were centrifuged, the supernatants discarded and the resulting pellets dissolved in 100 μL of lysing buffer consisting of 20% (w/v) of a solution of SDS (Sigma), 40% of N,N-dimethylformamide (Merck) in H2O. The absorbance of the obtained solutions was measured at a wavelength of 550 nm with a reference at 650 nm with a microplate spectrophotometer (Synergy 4-Biotek, Milan, Italy) and analyzed with the Gen5® software for data processing.
(§2) The results are expressed as IC50, the dose of compound that is necessary to inhibit cell growth by 50%; each IC50 value is the mean ± standard deviation of at least three separate experiments performed in duplicate.

L. tropica promastigotes = assay: Antileishmanial activity on L. tropica promastigotes (MTT); assay type: cell-based; conditions: Leishmania tropica, 72 h, 23 °C, MTT, read-out: Leishmania Promastigotes IC50, L. tropica
Method: as §1, §2

HMEC-1 = assay: Cytotoxicity on HMEC-1 (MTT); assay type: cell-based, human; conditions: Homo sapiens, HMEC-1; 72 h, MTT; read-out: Healthy Cell Lines IC50, HMEC-1
Method: (§3) Cytotoxicity was evaluated on human microvascular endothelial cells (HMEC-1, provided by the Centers for Disease Control, Atlanta, GA, USA), on immortalized mouse C57Bl/6 bone marrow derived macrophages (BMDM) from wild type lineage (generated in the laboratories of Drs. Douglas Golenbock and Kate Fitzgerald, University of Massachusetts, Worcester, MA, USA) and on a human acute monocytic leukaemia cell line (THP-1).
(§4) HMEC-1 were maintained in MCDB 131 medium (Invitrogen, Milan, Italy) supplemented with 10% fetal calf serum (HyClone), 10 ng/mL of epidermal growth factor, 1 μg/mL of hydrocortisone, 2 mM glutamine and 20 mM HEPES buffer, at 37 °C in 5% CO2. BMDM were maintained in DMEM (Euroclone) medium supplemented with 10% fetal bovine serum (HyClone, Celbio, Milan, Italy), 2 mM glutamine, and 25 mM of HEPES buffer solution (Euroclone). THP-1 were maintained in RPMI supplemented with 10% heat-inactivated FCS, 50 µM 2-mercaptoethanol, 10 µM sodium pyruvate, 20 mM HEPES, and 2 mM glutamine. In order to achieve differentiation into macrophages, cells were treated with 10 ng/mL phorbol myristate acetate (PMA) for 72 h.
(§5) For the cytotoxicity assay, cells were seeded in 96 well flat bottom tissue culture clusters (Costar, New York, NY, USA) at the following concentrations: HMEC 10^5 cell/mL, BMDM at 10^6 cell/mL, THP1 at 5 × 10^5 cell/mL. After 24 h, cells were treated with serial dilutions of test compounds in a final volume of 200 µL/well. Cell proliferation was evaluated after 72 h using the MTT assay.
(§6) The absorbances were measured with a microplate spectrophotometer (Synergy 4-Biotek) at a test wavelength of 550 nm and a reference wavelength of 650 nm. The results are expressed as IC50 as the concentration inhibiting 50% of cell growth. Each IC50 value is the mean and standard deviation of at least three separate experiments performed in duplicate.

THP-1 = assay: Cytotoxicity on THP-1 (MTT); assay type: cell-based, human; conditions: Homo sapiens, THP-1; PMA-differentiated, 72 h, MTT; read-out: Healthy Cell Lines IC50, THP-1
Method: as §3, §4, §5, §6

BMDM = assay: Cytotoxicity on BMDM (MTT); assay type: cell-based, mouse; conditions: Mus musculus, BMDM; 72 h, MTT; read-out: Healthy Cell Lines IC50, BMDM
Method: as §3, §4, §5, §6

L. infantum amastigotes = assay: Antileishmanial activity on intramacrophage amastigotes of L. infantum; assay type: cell-based, Leishmania infantum
Method: Cell monolayers were then washed and incubated in the presence of test compounds for 72 h. Slides were fixed with methanol and stained with Giemsa. The percentage of infected macrophages in treated and non-treated cells was determined by light microscopy.

LbHsp90 = LbHsp90 (Leishmania braziliensis, UniProt A4HL70); assay: In vitro inhibition of the ATPase activity of LbHsp90 (Malachite Green Phosphate Assay); assay type: biochemical; conditions: 7 μM LbHsp90, 27 °C, 60 min
From the text: To evaluate in vitro the modulatory activity of CE, PR and CE caboxamides, a full-length recombinant Hsp90 from L. braziliensis (LbHsp90) was produced in E. coli BL21 DE3 harboring the pET28a_LbHsp90 coding for the C-terminal His-tagged target chaperone (genbank number: XP_001567804.1, full sequence is reported in Appendix B). Pratically, the plasmid pET28a_LbHsp90, kindly donated by professor J.C. Borges, was transformed in E. coli BL21 DE3 using the TransformAid Bacterial Transformation Kit (Thermo Fisher, Waltham, MA, USA). Subsequently, the obtained transformants were grown overnight in LB medium containing 30 μg mL^−1 kanamycin (LBkan30) and then inoculated in 1 L SB kan30 medium (Yeast extract 30 g L^−1, Tryptone 20 g L^−1, NaCl 10 g L^−1) at 37 °C and 220 rpm. When the OD600 reached 0.5–1, gene expression was induced by the addition of 2 mL of 1 M IPTG solution in water and the culture was shifted at 30 °C for 24 h. After cell harvesting by centrifugation (5000 rpm for 30 min), the cell pellet was resuspended in 20 mL of wash buffer (20 mM HEPES buffer, pH 7.0, 500 mM NaCl, 20 mM imidazole) and recombinant E. coli BL21DE3 cells were disrupted by ultrasonication. LbHsp90 was subsequently purified using a Nickel Sepharose 6 Fast Flow agarose resin (Ni-NTA) (GE Healthcare, Milan, Italy) as follows. Soluble protein fraction was separated from cell debris by centrifugation (10,000 rpm for 30min) after cell ultrasonication, and clear lysates were incubated with the Ni-NTA resin for 90 min at 4 °C under mild shaking and loaded onto a glass column (10 × 110 mm). The resin was then washed with 10mL of wash buffer and His-tagged LbHsp90 was eluted using a 3 step gradient (10 mL washing buffer containing 100, 200, and 300 mM imidazole, respectively) and dialyzed against 20 mM HEPES buffer (20 mM, pH 7.5), at 4 °C overnight. The protein content was measured using the Bio-Rad Protein Assay (Hercules, CA, USA) according to the Bradford method and the protein purity was verified by SDS-PAGE analysis (10% T, 2.6% C). It is worth noting that to avoid interferences with the assays described below, proteins were purified and conserved in HEPES buffer (20 mM, pH 7.5) in place of the standard PB-buffer. Reported data are the mean of two experiments run in duplicate.
Modulatory activity toward the ATPase cycle of LbHsp90 was determined using a Malachite Green Phosphate Assay Kit (Catalog Number MAK307, Sigma-Aldrich®, St. Louis, MO, USA). Analyses were run in a 96-well plate directly following the quantitative formation of a green complex between Malachite Green, molybdate, and free orthophosphate (Pi) produced by ATP hydrolysis catalyzed by the chaperone. Color formation from the reaction was measured on a plate reader at 620 nm. Briefly, the IC50 of CE and its derivatives were extrapolated from a set of dose-response curves obtained by calculating the amount of Pi produced by LbHsp90 in the presence of different compounds concentrations.
Reactions were run in HEPES buffer (20 mM, pH 7.5) containing 3 mM MgCl2 and 50 mM KCl in the presence of different compounds concentrations ([…]), LbHsp90 (7 μM) and ATP (25 mM) at 27 °C for 60 min. OD620 was measured 30 min after Malachite Green reactants addition.
LbHsp90 native activity was measured by conducting the reaction in the presence of just LbHsp90 and ATP and extrapolating the concentration of Pi obtained.
Three sets of control experiments, (1) ATP background hydrolysis, (2) compounds-related interferences and (3) protein-related background coloration, were run as follow: • (1) ATP (25 mM) incubated at 27 °C for 60 min • (2) Compounds (different concentrations) incubated with ATP (25 mM) at 27 °C for 60 min • (3) LbHsp90 (7 μM) at 27 °C for 60 min
The in vitro performances of CE, PR and the carboxamides 1–11 (Figure 4) as potential inhibitors of the Leishmania braziliensis Hsp90 were investigated using Sigma-Aldrich® Malachite Green Phosphate Assay Kit. […]

Chain of LbHsp90 (A4HL70 entry or part of it): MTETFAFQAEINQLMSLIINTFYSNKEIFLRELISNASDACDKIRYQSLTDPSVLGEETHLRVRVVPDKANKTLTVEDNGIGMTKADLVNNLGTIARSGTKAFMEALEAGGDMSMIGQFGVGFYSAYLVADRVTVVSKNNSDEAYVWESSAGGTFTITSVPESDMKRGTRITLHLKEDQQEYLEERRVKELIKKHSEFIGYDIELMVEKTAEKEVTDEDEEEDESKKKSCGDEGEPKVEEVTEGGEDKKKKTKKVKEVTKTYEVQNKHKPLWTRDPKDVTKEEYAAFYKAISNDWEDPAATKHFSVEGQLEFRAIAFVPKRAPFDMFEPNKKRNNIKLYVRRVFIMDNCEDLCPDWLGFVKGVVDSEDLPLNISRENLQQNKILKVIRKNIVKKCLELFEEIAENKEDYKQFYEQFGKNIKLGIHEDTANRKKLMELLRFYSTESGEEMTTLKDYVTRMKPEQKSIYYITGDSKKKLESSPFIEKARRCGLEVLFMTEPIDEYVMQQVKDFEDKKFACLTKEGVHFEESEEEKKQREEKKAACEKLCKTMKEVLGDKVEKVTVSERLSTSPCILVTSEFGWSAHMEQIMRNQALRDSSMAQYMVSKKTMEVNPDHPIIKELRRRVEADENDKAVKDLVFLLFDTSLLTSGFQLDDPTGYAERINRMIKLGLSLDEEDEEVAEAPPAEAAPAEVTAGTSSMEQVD

IC50 [1] [nM]	IC50 (L. tropica promastigotes) [nM]	IC50 (L. infantum amastigotes; Leishmania infantum, infected THP-1 macrophages, 72 h) [nM]	IC50 (LbHsp90) [nM]	melting point [°C]	SMILES	IC50 (HMEC-1) [nM]	IC50 (THP-1) [nM]	IC50 (BMDM) [nM]	S.I. (selectivity index) (L. infantum amastigotes; ratio IC50 on THP-1 cell line / IC50 toward L. infantum amastigotes)
160 ± 50	170 ± 20	180 ± 30	–	–	C[C@@H]1[C@H](O)[C@@H](C)/C=C/C=C/C=C/C=C/C=C/C=C/C=C/[C@H](O[C@@H]2O[C@H](C)[C@@H](O)[C@H](N)[C@@H]2O)C[C@@H]2O[C@](O)(C[C@@H](O)C[C@@H](O)[C@H](O)CC[C@@H](O)C[C@@H](O)CC(=O)O[C@H]1C)C[C@H](O)[C@H]2C(=O)O [AMP, amphotericin B, reference compound]	> 20000	> 20000	> 20000	>109
250 ± 80	200 ± 40	–	48000 ± 3000	235.7 to 237	CC1=C(O)C(=O)C=C2C1=CC=C1[C@@]2(C)CC[C@@]2(C)[C@@H]3C[C@](C)(C(=O)NCCC45CCCN4CCC5)CC[C@]3(C)CC[C@]12C [compound 4, (2R,4aS,6aS,12bR,14aS,14bR)-N-(2-(hexahydro-1H-pyrrolizin-7a-yl)ethyl)-10-hydroxy-2,4a,6a,9,12b,14a-hexamethyl-11-oxo-1,2,3,4,4a,5,6,6a,11,12b,13,14,14a,14b-tetradecahydropicene-2-carboxamide]	350 ± 160	1890 ± 430	2590 ± 710	–
